According to the supplement of paper PMC10307832:

Assays:
Assay in all cases: relative viability (nuclei count vs DMSO), 5 days (fraction); higher = more cells survive
IPA-3 + Luminespib = compound: C1=CC=C2C(=C1)C=CC(=C2SSC3=C(C=CC4=CC=CC=C43)O)O [IPA-3] + CCNC(=O)c1noc(-c2cc(C(C)C)c(O)cc2O)c1-c1ccc(CN2CCOCC2)cc1 [Luminespib] (partner 0.01 µM)
Method in brief: (§1)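 Lung cancer cell lines were seeded in 1536-well plates and dosed by pin tool the next day, with either a single drug or a fixed anchor-drug dose combined with five library-drug doses (not always all listed) spaced in √10 steps. Five days later, one step fixed the cells and stained their nuclei (final 0.05% Triton X-100, 1% formaldehyde, 1 ug/ml Hoechst), and nuclei were counted on 4× images. Relative viability is the nuclei count in treated wells divided by the count in vehicle wells, and each value is the median of duplicate plates.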

IPA-3 + Pemetrexed = compound: C1=CC=C2C(=C1)C=CC(=C2SSC3=C(C=CC4=CC=CC=C43)O)O [IPA-3] + Nc1nc2[nH]cc(CCc3ccc(C(=O)N[C@@H](CCC(=O)O)C(=O)O)cc3)c2c(=O)[nH]1 [Pemetrexed] (partner 0.2 µM)
Method in brief: as §1

Doramapimod + Foretinib = compound: Cc1ccc(-n2nc(C(C)(C)C)cc2NC(=O)Nc2ccc(OCCN3CCOCC3)c3ccccc23)cc1 [Doramapimod] + COc1cc2c(Oc3ccc(NC(=O)C4(C(=O)Nc5ccc(F)cc5)CC4)cc3F)ccnc2cc1OCCCN1CCOCC1 [Foretinib] (partner 0.25 µM)
Method in brief: as §1

RAF265 + OSI-027 = compound: Cn1c(Nc2ccc(C(F)(F)F)cc2)nc2cc(Oc3ccnc(-c4ncc(C(F)(F)F)[nH]4)c3)ccc21 [RAF265] + COc1cccc2cc(-c3nc([C@H]4CC[C@H](C(=O)O)CC4)n4ncnc(N)c34)[nH]c12 [OSI-027] (partner 0.5 µM)
Method in brief: as §1

Cell Line | relative viability (IPA-3 + Luminespib; first compound 0.2 µM) | relative viability (IPA-3 + Luminespib; first compound 0.6325 µM) | relative viability (IPA-3 + Luminespib; first compound 2 µM) | relative viability (IPA-3 + Luminespib; first compound 6.325 µM) | relative viability (IPA-3 + Luminespib; first compound 20 µM) | relative viability (IPA-3 + Pemetrexed; first compound 0.2 µM) | relative viability (IPA-3 + Pemetrexed; first compound 0.6325 µM) | relative viability (IPA-3 + Pemetrexed; first compound 2 µM) | relative viability (IPA-3 + Pemetrexed; first compound 6.325 µM) | relative viability (IPA-3 + Pemetrexed; first compound 20 µM) | relative viability (Doramapimod + Foretinib; first compound 0.02 µM) | relative viability (Doramapimod + Foretinib; first compound 0.06325 µM) | relative viability (Doramapimod + Foretinib; first compound 0.2 µM) | relative viability (Doramapimod + Foretinib; first compound 0.6325 µM) | relative viability (Doramapimod + Foretinib; first compound 2 µM) | relative viability (RAF265 + OSI-027; first compound 0.01 µM) | relative viability (RAF265 + OSI-027; first compound 0.03162 µM) | relative viability (RAF265 + OSI-027; first compound 0.1 µM) | relative viability (RAF265 + OSI-027; first compound 0.3162 µM) | relative viability (RAF265 + OSI-027; first compound 1 µM)
NCI-H2009 | 1.06 | 1.04 | 1.07 | 0.941 | 1.06 | 1.16 | 0.974 | 1.03 | 0.958 | 1.09 | 1.21 | 1.25 | 1.21 | 1.36 | 1.2 | 0.581 | 0.414 | 0.328 | 0.365 | 0.318
ABC-1 | 0.723 | – | 0.573 | – | 0.29 | – | – | – | – | – | 1.39 | 1.11 | 1.05 | 0.919 | 0.881 | 0.39 | 0.48 | 0.365 | 0.408 | 0.31
IA-LM | – | – | – | – | – | – | – | – | – | – | 0.933 | 1.04 | 1.11 | 1.17 | 0.729 | – | – | – | – | –
NCI-H322M | 0.964 | 0.722 | 1.08 | 1.02 | 1.13 | 0.594 | 0.624 | 0.681 | 0.669 | 0.573 | 1.11 | 0.913 | 1.08 | 1.05 | 1.05 | 0.589 | 0.519 | 0.41 | 0.358 | 0.186
NCI-H1792 | 0.475 | 0.529 | 0.418 | 0.38 | 0.615 | 1.33 | 0.486 | – | 0.587 | 0.737 | – | – | – | – | – | 0.681 | 0.691 | 0.72 | 0.444 | 0.25
LXF-289 | 0.844 | 0.648 | 0.646 | 0.814 | 0.691 | 0.949 | 0.786 | 0.963 | 0.996 | 0.925 | 0.955 | 1.04 | 0.999 | 0.955 | 0.928 | 0.836 | 0.813 | 0.59 | 0.326 | 0.2
HCC-827 | 0.881 | 0.588 | 0.627 | 0.67 | 0.745 | 0.264 | 0.261 | 0.241 | 0.254 | 0.254 | 1.07 | 1.06 | 1.13 | 1.04 | 0.703 | 0.754 | 0.783 | 0.708 | – | 0.649
EMC-BAC-2 | 1.13 | 1.04 | 1.2 | 1.2 | 1.21 | 0.456 | 0.461 | 0.458 | 0.437 | 0.464 | 0.999 | 1.02 | 1.09 | 1.23 | 1 | 0.375 | 0.342 | 0.219 | 0.232 | 0.134
NCI-H520 | 0.213 | 0.3 | 0.266 | 0.244 | 0.247 | 0.75 | 0.664 | – | 0.64 | 0.755 | 0.63 | 0.864 | 0.656 | 0.674 | 0.498 | 0.248 | 0.255 | 0.287 | 0.299 | 0.224
NCI-H1755 | 0.447 | 0.421 | 0.416 | 0.479 | 0.597 | 0.621 | 0.44 | 0.495 | 0.399 | 0.398 | 0.984 | 0.928 | 0.93 | 0.892 | 0.866 | 0.689 | 0.636 | 0.597 | 0.455 | 0.303
